From ChEMBL document CHEMBL6153034, “Synthesis of dolutegravir derivatives modified by 1,2,3-triazole structure and their anti-inflammatory activity in LPS-induced BV2 cells” (Bioorg Med Chem Lett, 2025)
Active and inactive are the calls of the source. The rule behind the calls is not given here.

Columns and labels:
[1] = test system: BV-2; assay: Antiinflammatory activity in LPS induced mouse BV-2 cells assessed as NO production at 10 uM by Griess reagent based assay relative to control
[2] = Acute toxicity in female Kunming mouse assessed as effect on organ coefficient of kidney at 250 mg/kg administered via gavage; type: organism-based; details: in vivo, po
[3] = Acute toxicity in female Kunming mouse assessed as effect on organ coefficient of lung at 250 mg/kg administered via gavage; type: organism-based; details: in vivo, po
[4] = Acute toxicity in female Kunming mouse assessed as histopathological changes in liver at 250 mg/kg administered via gavage by H and E staining based analysis; type: organism-based; details: in vivo, po
[5] = Acute toxicity in male Kunming mouse assessed as increase in GPT level in blood at 250 mg/kg administered via gavage by biochemical analysis; type: organism-based; details: in vivo, po
[6] = test system: BV-2; assay: Antiinflammatory activity in LPS-induced mouse BV-2 cells assessed as reduction in NO production preincubated for 2 hrs followed by LPS addition and measured after 24 hrs by Griess reagent based analysis; type: functional, cell-based; details: dose 5-10 µM, time 26.0 hrs
[7] = Acute toxicity in female Kunming mouse assessed as histopathological changes in lung at 250 mg/kg administered via gavage by H and E staining based analysis; type: organism-based; details: in vivo, po
[8] = Acute toxicity in male Kunming mouse assessed as effect on body weight at 250 mg/kg administered via gavage for 14 days; type: organism-based; details: in vivo, po, 336 h, time 14 day
[9] = Acute toxicity in female Kunming mouse assessed as histopathological changes in spleen at 250 mg/kg administered via gavage by H and E staining based analysis; type: organism-based; details: in vivo, po
[10] = test system: BV-2; assay: Inhibition of LPS-induced nuclear translocation of p-STAT1 in mouse BV-2 cells at 10 uM preincubated for 2 hrs followed LPS addition and measured after 3 hrs by DAPI staining based immunofluorescence assay; type: functional, cell-based; details: time 5.0 hrs
[11] = Acute toxicity in female Kunming mouse assessed as histopathological changes in heart at 250 mg/kg administered via gavage by H and E staining based analysis; type: organism-based; details: in vivo, po
[12] = Acute toxicity in male Kunming mouse assessed as histopathological changes in kidney at 250 mg/kg administered via gavage by H and E staining based analysis; type: organism-based; details: in vivo, po
[13] = Acute toxicity in female Kunming mouse assessed as effect on organ coefficient of spleen at 250 mg/kg administered via gavage; type: organism-based; details: in vivo, po
[14] = biological target: T1, Signal transducer and activator of transcription 1 (Mus musculus) (UniProt P42225); assay: Inhibition of STAT1 phosphorylation at Tyr701 residue in LPS-induced mouse BV-2 cells at 5 to 10 uM preincubated for 2 hrs followed by LPS addition and measured after 3 hrs by Western blot analysis; type: cell-based; details: dose 5-10 µM, time 5.0 hrs
T1 sequence (whole entry): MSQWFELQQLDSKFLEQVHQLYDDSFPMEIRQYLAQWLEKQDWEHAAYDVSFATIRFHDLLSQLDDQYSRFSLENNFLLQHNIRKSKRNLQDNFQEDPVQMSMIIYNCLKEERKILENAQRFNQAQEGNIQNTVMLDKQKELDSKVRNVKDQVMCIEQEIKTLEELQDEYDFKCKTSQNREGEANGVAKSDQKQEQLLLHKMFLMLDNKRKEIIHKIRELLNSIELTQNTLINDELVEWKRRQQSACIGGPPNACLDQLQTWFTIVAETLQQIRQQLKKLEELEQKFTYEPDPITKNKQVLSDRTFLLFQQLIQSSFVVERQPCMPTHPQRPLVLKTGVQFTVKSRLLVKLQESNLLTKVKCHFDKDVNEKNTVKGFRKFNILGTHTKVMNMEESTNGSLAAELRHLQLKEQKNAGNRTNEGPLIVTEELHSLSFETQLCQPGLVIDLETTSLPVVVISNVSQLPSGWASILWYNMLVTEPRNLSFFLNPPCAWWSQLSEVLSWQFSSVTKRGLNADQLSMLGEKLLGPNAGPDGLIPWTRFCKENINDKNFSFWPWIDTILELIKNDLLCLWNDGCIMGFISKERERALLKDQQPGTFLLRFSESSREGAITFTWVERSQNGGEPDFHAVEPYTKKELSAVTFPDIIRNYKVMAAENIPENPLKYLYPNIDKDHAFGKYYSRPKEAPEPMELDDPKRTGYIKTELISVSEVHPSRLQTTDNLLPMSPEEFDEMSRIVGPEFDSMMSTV

[15] = test system: BV-2; assay: Antiinflammatory activity in LPS-induced mouse BV-2 cells assessed as decrease in TNF-alpha production preincubated for 2 hrs followed by LPS addition and measured after 24 hrs by qRT-PCR analysis; type: functional, cell-based; details: dose 5-10 µM, time 26.0 hrs
[16] = test system: BV-2; assay: Antiinflammatory activity in LPS induced mouse BV-2 cells assessed as NO production at 1 uM by Griess reagent based assay relative to control
[17] = Acute toxicity in male Kunming mouse assessed as effect on organ coefficient of kidney at 250 mg/kg administered via gavage; type: organism-based; details: in vivo, po
[18] = Acute toxicity in male Kunming mouse assessed as histopathological changes in liver at 250 mg/kg administered via gavage by H and E staining based analysis; type: organism-based; details: in vivo, po
[19] = test system: BV-2; assay: Antiinflammatory activity in LPS-induced mouse BV-2 cells assessed as downregulation of COX-2 protein expression level preincubated for 2 hrs followed by LPS addition and measured after 24 hrs by Western blot analysis; type: functional, cell-based; details: dose 5-10 µM, time 26.0 hrs
[20] = Acute toxicity in female Kunming mouse assessed as effect on organ coefficient of heart at 250 mg/kg administered via gavage; type: organism-based; details: in vivo, po
[21] = Acute toxicity in male Kunming mouse assessed as effect on organ coefficient of spleen at 250 mg/kg administered via gavage; type: organism-based; details: in vivo, po
[22] = test system: BV-2; assay: Antiinflammatory activity in LPS induced mouse BV-2 cells assessed as downregulation of IL-6 mRNA expression level preincubated for 2 hrs followed by LPS addition and measured after 24 hrs by qRT-PCR analysis; type: functional, cell-based; details: dose 5-10 µM, time 26.0 hrs
[23] = Cytotoxicity against mouse BV-2 cells assessed as cell viability at 1 uM by MTT assay relative to control; type: toxicity, cell-based; details: read-out: Activity
[24] = test system: BV-2; assay: Antiinflammatory activity in LPS induced mouse BV-2 cells assessed as inhibition of NO production by Griess reagent based assay; type: functional, cell-based
[25] = Acute toxicity in female Kunming mouse assessed as histopathological changes in kidney at 250 mg/kg administered via gavage by H and E staining based analysis; type: organism-based; details: in vivo, po
[26] = test system: BV-2; assay: Antiinflammatory activity in LPS-induced mouse BV-2 cells assessed as downregulation of iNOS mRNA expression level at 5 to 10 uM preincubated for 2 hrs followed by LPS addition and measured after 6 hrs by qRT-PCR analysis; type: functional, cell-based; details: dose 5-10 µM, time 8.0 hrs
[27] = Acute toxicity in female Kunming mouse assessed as effect on body weight at 250 mg/kg administered via gavage for 14 days; type: organism-based; details: in vivo, po, 336 h, time 14 day
[28] = Acute toxicity in female Kunming mouse assessed as effect on GPT level in blood at 250 mg/kg administered via gavage by biochemical analysis; type: organism-based; details: in vivo, po
[29] = biological target: Signal transducer and activator of transcription 3 (Mus musculus) (UniProt P42227); assay: Inhibition of STAT3 phosphorylation at Tyr705 residue in LPS-induced mouse BV-2 cells at 5 to 10 uM preincubated for 2 hrs followed by LPS addition and measured after 3 hrs by Western blot analysis; type: cell-based; details: dose 5-10 µM, time 5.0 hrs
Chain of Signal transducer and activator of transcription 3 (Mus musculus) (P42227 whole entry): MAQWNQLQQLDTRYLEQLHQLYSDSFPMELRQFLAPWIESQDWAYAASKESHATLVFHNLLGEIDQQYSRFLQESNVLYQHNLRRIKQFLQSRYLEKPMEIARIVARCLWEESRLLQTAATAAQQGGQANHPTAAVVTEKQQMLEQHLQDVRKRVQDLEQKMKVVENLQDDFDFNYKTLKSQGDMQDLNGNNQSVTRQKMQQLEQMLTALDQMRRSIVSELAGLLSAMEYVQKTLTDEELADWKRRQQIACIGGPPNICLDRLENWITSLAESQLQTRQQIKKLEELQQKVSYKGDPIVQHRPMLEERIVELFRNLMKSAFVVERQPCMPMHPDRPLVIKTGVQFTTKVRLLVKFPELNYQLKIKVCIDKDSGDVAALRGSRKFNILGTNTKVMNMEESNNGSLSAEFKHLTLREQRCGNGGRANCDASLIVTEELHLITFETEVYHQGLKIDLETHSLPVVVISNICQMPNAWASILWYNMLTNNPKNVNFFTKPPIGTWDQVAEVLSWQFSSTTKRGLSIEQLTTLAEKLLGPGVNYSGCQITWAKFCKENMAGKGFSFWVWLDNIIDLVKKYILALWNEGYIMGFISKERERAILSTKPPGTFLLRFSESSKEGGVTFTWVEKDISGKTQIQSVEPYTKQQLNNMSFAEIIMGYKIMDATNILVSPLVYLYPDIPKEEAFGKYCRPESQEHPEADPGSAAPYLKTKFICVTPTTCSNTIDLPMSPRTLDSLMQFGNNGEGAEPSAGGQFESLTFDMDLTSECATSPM

SMILES: COc1c2n(cc(C(=O)Nc3cccc(-c4cn(-c5ccccc5Cl)nn4)c3)c1=O)C[C@@H]1OCC[C@@H](C)N1C2=O
- level, % of control at 10 µM [1]: 43%
- Activity [2]: Non-toxic
- Activity [3]: Non-toxic
- Activity [4]: Non-toxic
- Activity [5]: Toxic
- Activity [6]: Dose-dependent-effect
- Activity [7]: Non-toxic
- Activity [8]: Non-toxic
- Activity [9]: Non-toxic
- inhibition [10]: Active
- Activity [11]: Non-toxic
- Activity [12]: Non-toxic
- Activity [13]: Non-toxic
- inhibition [14]: Active
- Activity [15]: Dose-dependent-effect
- level, % of control at 1 µM [16]: 71%
- Activity [17]: Non-toxic
- Activity [18]: Non-toxic
- Activity [19]: Dose-dependent-effect
- Activity [20]: Non-toxic
- Activity [21]: Non-toxic
- Activity [22]: Dose-dependent-effect
- viability at 1 µM [23]: 88%
- IC50 [24]: 4.45 µM
- Activity [25]: Non-toxic
- Activity [26]: Active
- Activity [27]: Non-toxic
- Activity [28]: Non-toxic
- inhibition [29]: Active
